Data on one compound can be found in patent publication US12065404B2, “C4-carboxylic acid-substituted tryptamine derivatives and methods of using” (priority 2022, dated 2024).

Values joined by “and” are separate entries in the source; they are usually repeats but may differ in a detail not shown here. Identical values can stand only once.

The nature of series [1]: In vitro metabolic stability / psilocin release, liver fractions (HLM, HLS9). Type of series: in vitro ADME, human. The settings on record: HLM and HLS9, 2 hours, 37° C. An excerpt:
(§1) A fundamental evaluation in drug development is the assessment of absorption, distribution, metabolism, excretion, and pharmacokinetics (ADME/PK) (Eddershaw et al., 2000, Drug Discovery Today 5(9): 409-414). […] Drug stability upon exposure to human liver microsomes and liver S9 cellular fractions is a common in vitro assay to approximate in vivo, liver-based drug metabolism (Richardson et al., 2016 Drug Metabolism Letters 10:83-90). First-pass metabolism is also often approximated in vitro using intestinal microsome and cellular S9 fractions (Hatley et al., 2017, Biopharmaceuticals & Drug Disposition, 38(2):155-160). […] Supernatants were analyzed for the presence of candidate prodrugs (parent molecule) and psilocin (the predicted metabolite) using Orbitrap LC-MS (Thermo Scientific) using previously described methods (Menendez-Perdomo et al., 2021, J Mass Spectrom, 56: e4683). […] Assay concentrations (μM) of both parent ‘prodrug’ molecule and psilocin metabolite, as quantified through LC-MS using routine standard curve procedures, were plotted as functions of assay time (minutes). The metabolism rate (T1/2) was determined from the metabolism curve plot using the one phase decay feature of GraphPad PRISM software (Version 9.2.0). The quantity of parent prodrug at time zero was set as 100%. […]

Series [2] can be described thus: In vitro metabolic stability / psilocin release, AB serum. Type of series: in vitro ADME. The note with it: 10% human AB serum.
Description: as §1

A short description of series [3]: Stability in enzyme-free control buffer. Type of series: physicochemical. The settings on record: pH 7.4. An excerpt: A fundamental evaluation in drug development is the assessment of absorption, distribution, metabolism, excretion, and pharmacokinetics (ADME/PK) (Eddershaw et al., 2000, Drug Discovery Today 5(9): 409-414). […] Drug stability upon exposure to human liver microsomes and liver S9 cellular fractions is a common in vitro assay to approximate in vivo, liver-based drug metabolism (Richardson et al., 2016 Drug Metabolism Letters 10:83-90). First-pass metabolism is also often approximated in vitro using intestinal microsome and cellular S9 fractions (Hatley et al., 2017, Biopharmaceuticals & Drug Disposition, 38(2):155-160). […] Supernatants were analyzed for the presence of candidate prodrugs (parent molecule) and psilocin (the predicted metabolite) using Orbitrap LC-MS (Thermo Scientific) using previously described methods (Menendez-Perdomo et al., 2021, J Mass Spectrom, 56: e4683). […] Assay concentrations (μM) of both parent ‘prodrug’ molecule and psilocin metabolite, as quantified through LC-MS using routine standard curve procedures, were plotted as functions of assay time (minutes). The metabolism rate (T1/2) was determined from the metabolism curve plot using the one phase decay feature of GraphPad PRISM software (Version 9.2.0). The quantity of parent prodrug at time zero was set as 100%.

The nature of series [4]: Mouse pharmacokinetic (PK) study, parent compound and psilocin metabolite in plasma. Type of series: in vivo, C57Bl/6 mice. The note with it: mouse; for Plasma concentration of psilocin: 24 h. An excerpt: Briefly, the procedure was as follows. […] 19, 2022.

As for `CN(C)CCc1c[nH]c2cccc(OP(=O)(O)O)c12` [psilocybin, reference compound], the “Stability / conversion to psilocin in liver fractions” value in series [1] is “stable in liver fractions with no conversion to psilocin”. In addition, the “Stability / conversion to psilocin in serum” value in series [2] is recorded as “stable in serum with no conversion to psilocin”. The “Stability in assay buffer” value in series [3] is on record as “stability of psilocybin was confirmed in assay buffer”. Moreover, the tmax in series [4] (male, C57Bl/6, plasma, iv, 1 mg/kg i.v., individual animals, read-out: tmax of administered (parent) compound) is 5 min. In series [4] (1 mg/kg i.v.), the “Detectability of administered compound in plasma, i.v. administered animals” value is “only detectable in i.v. administered animals”. For the same compound, in series [4] (oral, any dose (1, 3, 10 mg/kg)), the “Detectability of administered compound in plasma, orally administered animals” value is listed as “not detectable in orally administered animals at any dose”. Also, the “Plasma concentration of administered (parent) compound” value in series [4] (1 mg/kg i.v., 5 min, individual animals, 1 mg/kg) is 19.7 ng/mL and 76.8 ng/mL and 334 ng/mL; in series [4] (1 mg/kg i.v., 0.25 h, individual animals, 1 mg/kg), 3.32 ng/mL and 8.95 ng/mL and 27.2 ng/mL; in series [4] (1 mg/kg i.v., 0.5 h, individual animals, 1 mg/kg), “No Peak and 2.35 ng/mL and 6.21 ng/mL”; in series [4] (1 mg/kg i.v., 1 h, individual animals, 1 mg/kg) it was “No Peak”; in series [4] (1 mg/kg i.v., 2 h, individual animals), “No Peak”; in series [4] (1 mg/kg i.v., 4 h, individual animals), “No Peak”. Besides, the “Plasma concentration of administered (parent) compound” value in series [4] (1 mg/kg i.v., 6 h, individual animals) is given as “No Peak”; in series [4] (1 mg/kg i.v., 8 h, individual animals, 1 mg/kg), “No Peak”. Also, the “tmax of administered (parent) compound” value is 5 min in series [4] (1 mg/kg i.v., individual animals) and 5 ± 0 min in series [4] (1 mg/kg i.v., mean ± SD). Further, the “Cmax of administered (parent) compound” value is 19.7 ng/mL and 76.8 ng/mL and 334 ng/mL in series [4] (1 mg/kg i.v., individual animals, 1 mg/kg); 144 ± 167 ng/mL in series [4] (1 mg/kg i.v., mean ± SD). Further, the “Plasma concentration of psilocin” value is “BLQ (BLQ denotes below the lower limit of quantitation (0.2 ng/ml).)” in series [4] (prodrug 1.56 mg/kg oral (nominal 1 mg/kg), individual animals) and “BLQ (BLQ denotes below the lower limit of quantitation (0.2 ng/ml).)” in series [4] (prodrug 3 mg/kg oral, individual animals).
